In US20220402872A1, “PHOTOPOLYMERIZABLE ANTIBACTERIAL MONOMER” (UNIVERSITA' DEGLI STUDI DI TRIESTE, priority 2019, published 2022):

What was measured:
Assay type in all cases: cell-based
E. coli (ATCC25922) = test: Determination of the minimum bactericidal concentration (MBC)
Protocol: (§1) A 20 mg/mL compound stock solution in BHI medium is prepared. In a 96-well plate, the compound solution is diluted serially (the concentration is halved at each step) to obtain the following final concentrations after addition of the bacteria suspension: 10 mg/mL; 5 mg/mL; 2.5 mg/mL; 1.25 mg/mL; 0.625 mg/mL; 0.31 mg/mL; 0.15 mg/mL; 0.08 mg/mL; 0.04 mg/mL; 0.02 mg/mL. Wells containing a mixture of penicillin and streptomycin antibiotics are used as a positive control. Compound-free medium is used as a growth control. A volume of bacterial suspension equal to 0.5*10^6 bacteria/mL is added to each well containing the compound and the controls. The dish is incubated at 37° C. for 24 hours. The lowest compound concentration at which no turbidity of the culture medium is evident is defined as MIC. For the calculation of MBC, aliquots equal to 50 μL are taken from the wells showing evident no turbidity of the medium and are plated on BHI agar plates for 48 hours. […] Bacterial suspensions taken from the positive control (growth medium only) and the negative control (growth medium with Ampicilin 100 μg/mL) are also seeded.
(§2) The compounds according to Examples 1, 3, 5, 6, and 7 were tested on bacterial strains different from S. mutans with the same methods described above, obtaining the MIC and MBC values reported in Table 2.

S. Mitis (ATCC 49456) = test: as above
Protocol: as §1, §2

S. Aureus (ATCC 25923) = test: as above
Protocol: as §1, §2

S. Sanguis (ATCC 10556) = test: as above
Protocol: as §1, §2

[1] = test system: S. mutans bacterial suspension (ATCC 25175); test: Direct contact test (DCT) in bonding resin R2
Protocol: The DCT test is based on the turbidimetric determination of bacterial growth in 96-well microplates.
On the wall of each well, 15 μL of the resin to be tested are polymerized for 40 s, using a VALO® Grand LED curing light (Ultradent, Milan, Italy) in standard mode (1000 mW/cm^2, 2 maximum of emission in the ranges of wavelengths 395-415 nm and 440-480 nm);
In this way the side walls of the wells are coated with the polymerized material under test. The wells are then washed with phosphate buffered saline (PBS) before inoculating them with bacteria. Keeping the plate in vertical position, 10 μL of S. mutans bacterial suspension (ATCC 25175) in brain heart infusion medium (BHI) from an o/n culture, is then deposited on the layer of material present on the side walls of the wells. The plate is held upright for 1 hour to allow direct contact between bacteria and the cured material. 200 μL culture broth is then added to each of the wells with gentle mixing. The microplate is then placed in the chamber of a spectrophotometer for ELISA plates reading at 37° C. and the optical density in each well is measured at 600 nm at regular intervals (every 30 minutes for 18 hours). The whole experiment is conducted under aseptic conditions and is repeated on three microplates to ensure reproducibility of the result. 24 wells for each microplate were tested for each sample.
The bactericidal properties of the compounds according to Examples 1, 5, 6 and 7 within a reference bonding resin called R2 were tested using the “Direct contact test (DCT)” method described above. As a negative reference, the reference bonding resin was used without adding compounds according to the invention.
The reference resin called R2 has the following composition (% by weight): • 70% Bis-GMA (bisphenol A glycidyl dimethacrylate, CAS 1565-94-2, Sigma-Aldrich); • 28.75% TEGDMA (triethylene glycol dimethacrylate, CAS 109-16-0, Sigma-Aldrich); • 0.25% CQ (Camphorquinone, CAS 10373-78-1, Sigma-Aldrich); • 1% EDMAD (ethyl-4-dimethylamino benzoate, CAS 10287-53-3, Sigma-Aldrich) and was diluted with 20% by weight of EtOH for use.
For the tests execution, different quantities of the compounds according to examples 1, 5, 6 and 7 were added to the resin R2 in a quantity range from 0.1 to 10% by weight. The homogeneity of the material to be tested was ensured before application in the wells by carrying out a sonication (50%, 5 min) and mixing with Vortex (800 rpm, 5 min) of the various resins added with the compound according to the invention.

S. mutans (ATCC 25175) = test: Determination of the minimum bactericidal concentration (MBC); conditions: Streptococcus mutans, ATCC25175; against S. Mutans
Protocol: as §1
In order to test the antibacterial properties of the compounds prepared in Examples 1-8, on colonies of S. mutans (ATCC 25175), a bacterium commonly found in the human oral cavity, a test was set up to determine the minimum inhibitory concentration (MIC) and the minimum bactericidal concentration (MBC) according to the “Determination of minimum inhibitory concentration (MIC)” methods and “Determination of minimum bactericidal concentration (MBC)” described above.

Structure (SMILES)	MCB (E. coli (ATCC25922)) [mg/mL]	MCB (S. Mitis (ATCC 49456)) [mg/mL]	MCB (S. Aureus (ATCC 25923)) [mg/mL]	MCB (S. Sanguis (ATCC 10556)) [mg/mL]	inhibition of bacterial survival by contact (optical density) ([1]; 1% by weight in resin R2)	MBC (S. mutans (ATCC 25175)) [µg/mL]	inhibition of bacterial survival by contact (optical density) ([1]; 0.5% by weight in resin R2)
C=C(C)C(=O)OCC[N+](C)(C)CCCCCCCCCCCC[N+](C)(C)CCOC(=O)C(=C)C.[Br-].[Br-] [Example 1]	0.625	0.62	0.156	0.62	able to inhibit bacterial survival by contact	300	
C=C(C)C(=O)OCC[N+](CC)(CC)CCCCCCCCCCCC[N+](CC)(CC)CCOC(=O)C(=C)C.[Br-].[Br-] [Example 5]	0.156	0.039	0.039	0.039	able to inhibit bacterial survival by contact	20	
C=C(C)C(=O)NCc1cc[n+](CCCCCCCCCCCC[n+]2ccc(CNC(=O)C(=C)C)cc2)cc1.[Br-].[Br-] [Example 7]	0.0025	0.02	0.005	0.02	able to inhibit bacterial survival by contact	2.5	
C=C(C)C(=O)Nc1ccc([N+](C)(C)CCCCCCCCCCCC[N+](C)(C)c2ccc(NC(=O)C(C)=O)cc2)cc1.[Br-].[Br-] [Example 6]	0.002	0.01	0.01	0.005		10	able to inhibit bacterial survival by contact
